Measured values published in patent US11667634B2, “Inhibitors of RAF kinases” (Kinnate Biopharma Inc., priority 2019, dated 2023).

Molecular target: human RAF1 (Homo sapiens (Human), UniProt P04049)
Assay: Protein kinase assay (radiometric 33P-ATP, MEK1 (K97R) substrate)
Format: biochemical
Settings: substrate human MEK1 (K97R) 3 micromolar, ATP 10 micromolar, 3-fold dilution from 10 micromolar, read-out: RAF-1 IC50
Protocol: Protein kinase assay: Assay platform was used to measure kinase/inhibitor interactions as described previously (Anastassiadis et al., 2011). In brief, for each reaction, kinase and substrate were mixed in a buffer containing 20 mM HEPES (pH 7.5), 10 mM MgCl2, 1 mM EGTA, 0.02% Brij35, 0.02 mg/mL BSA, 0.1 mM Na3VO4, 2 mM DTT, and 1% DMSO. All compounds were solubilized in DMSO. Compounds were then added to each reaction mixture via acoustic dispense using an ECHO 550 nanoliter dispenser. For human RAF1 testing, human MEK1 (K97R) was used as a substrate at a concentration of 3 micromolar, with a final ATP concentration of 10 micromolar. For human BRAF testing, human MEK1 (K97R) was used as a substrate at 1 micromolar concentration, with a final ATP concentration of 25 micromolar. […] After a 20-min incubation, ATP (Sigma-Aldrich, St. Louis, Mo. 63178) and [g33P] ATP (specific activity 10 microCi/microliter) purchased at PerkinElmer (Boston, Mass., 02118 Cat #BLU 003H250UC) were added at a final total concentration of 10 mM. Reactions were carried out at room temperature for 2 hr and spotted onto P81 ion exchange cellulose chromatography paper (Reaction Biology). Filter paper was washed in 0.75% phosphoric acid to remove unincorporated ATP. The percent remaining kinase activity relative to a vehicle-containing (DMSO) kinase reaction was calculated for each kinase/inhibitor pair. IC50 values were calculated using Prism 5 (GraphPad).

Chain of human RAF1 (P04049 whole entry): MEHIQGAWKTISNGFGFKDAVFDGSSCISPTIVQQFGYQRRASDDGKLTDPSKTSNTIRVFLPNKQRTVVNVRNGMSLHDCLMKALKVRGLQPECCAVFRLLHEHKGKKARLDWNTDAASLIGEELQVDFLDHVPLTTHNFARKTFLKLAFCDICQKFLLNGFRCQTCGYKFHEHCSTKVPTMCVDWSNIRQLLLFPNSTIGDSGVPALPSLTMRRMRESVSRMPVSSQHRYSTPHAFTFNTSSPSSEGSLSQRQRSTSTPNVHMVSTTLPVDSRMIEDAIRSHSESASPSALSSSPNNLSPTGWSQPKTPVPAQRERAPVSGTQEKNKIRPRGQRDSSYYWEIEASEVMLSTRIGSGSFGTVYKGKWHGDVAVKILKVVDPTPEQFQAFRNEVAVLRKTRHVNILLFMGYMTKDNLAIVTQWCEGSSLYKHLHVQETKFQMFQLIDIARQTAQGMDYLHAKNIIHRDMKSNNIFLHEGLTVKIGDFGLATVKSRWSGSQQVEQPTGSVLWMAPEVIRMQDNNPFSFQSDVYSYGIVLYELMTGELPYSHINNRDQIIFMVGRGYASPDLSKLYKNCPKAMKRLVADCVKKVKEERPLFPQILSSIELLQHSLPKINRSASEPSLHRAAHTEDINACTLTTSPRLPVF

IC50, ≤ 10 nM:
CNc1ncc2cc(-c3cc(NC(=O)N4CCOC(C(F)(F)F)C4)ccc3C)cnc2n1 (stereo in doubt) [Example 58, (2S)-N-[4-methyl-3-2-(methylamino)pyrido[2,3-d]pyrimidin-6-yl]phenyl]-2-(trifluoromethyl)morpholine-4-carboxamide]
CNc1ncc2cc(-c3cc(NC(=O)N4CC[C@H](OC(F)F)C4)c(F)cc3C)cnc2n1 [Example 28, (S)-3-(difluoromethoxy)-N-(2-fluoro-4-methyl-5-(2-(methylamino)pyrido[2,3-d]pyrimidin-6-yl)phenyl)pyrrolidine-1-carboxamide]
C#Cc1nc2nc(NC)ncc2cc1-c1cc(NC(=O)c2ccnc(C(F)(F)F)c2)ccc1C [Example 67, N-[3-[7-ethynyl-2-(methylamino)pyrido[2,3-d]pyrimidin-6-yl]-4-methylphenyl]-2-(trifluoromethyl)pyridine-4-carboxamide]
